{"source": "ChEMBL document CHEMBL3421553", "about": "“Design, synthesis, and biological evaluation of benzoselenazole-stilbene hybrids as multi-target-directed anti-cancer agents” (Eur J Med Chem, 2015)", "key": {"MCF7": {"tested_on": "MCF7", "test": "Antiproliferative activity against human MCF7 cells assessed as cell viability after 48 hrs by MTT assay", "format": "functional, cell-based", "conditions": "MCF7, 48 h"}, "[1]": {"test": "Antiproliferative activity against human Bel7402 cells assessed as cell viability after 48 hrs by MTT assay", "format": "functional, cell-based", "conditions": "Bel-7402, 48 h"}, "A549": {"tested_on": "A549", "test": "Antiproliferative activity against human A549 cells assessed as cell viability after 48 hrs by MTT assay", "format": "functional, cell-based", "conditions": "A549, 48 h"}, "[2]": {"test": "Aqueous solubility of the compound in phosphate buffer at pH 7.4", "format": "physicochemical"}, "[3]": {"test": "Inhibition of rat liver TrxR assessed as increase in absorbance by DTNB assay"}, "HeLa": {"tested_on": "HeLa", "test": "Antiproliferative activity against human HeLa cells assessed as cell viability after 48 hrs by MTT assay", "format": "functional, cell-based"}, "Rattus norvegicus": {"species": "Rattus norvegicus", "test": "Inhibition of rat liver TrxR assessed as increase in absorbance at 10 uM by DTNB assay"}, "Bel-7402 [4]": {"tested_on": "Bel-7402", "test": "Induction of apoptosis in human Bel7402 cells assessed as live cells at 50 uM after 48 hrs by flow cytometry (reference value: 98.65%)", "format": "functional"}, "[5]": {"test": "Cell cycle arrest in human Bel7402 cells assessed as cells accumulation at Sub-G1 phase at 50 uM after 48 hrs by flow cytometry (reference value: 1.47%)", "format": "functional, cell-based", "conditions": "Bel-7402"}, "Bel-7402 [6]": {"tested_on": "Bel-7402", "test": "Induction of apoptosis in human Bel7402 cells assessed as apoptotic cells at 50 uM after 48 hrs by flow cytometry (reference value: 0.73%)", "format": "functional"}, "[7]": {"test": "Cell cycle arrest in human Bel7402 cells assessed as cells accumulation at S phase at 50 uM after 48 hrs by flow cytometry (reference value: 13.99%)", "format": "functional, cell-based", "conditions": "Bel-7402"}, "Bel-7402 [8]": {"tested_on": "Bel-7402", "test": "Induction of apoptosis in human Bel7402 cells assessed as detection error cells at 50 uM after 48 hrs by flow cytometry (reference value: 0.43%)", "format": "functional"}, "[9]": {"test": "Cell cycle arrest in human Bel7402 cells assessed as cells accumulation at G2/M phase at 50 uM after 48 hrs by flow cytometry (reference value: 16.61%)", "format": "functional, cell-based", "conditions": "Bel-7402"}, "Bel-7402 [10]": {"tested_on": "Bel-7402", "test": "Induction of apoptosis in human Bel7402 cells assessed as necrotic cells at 50 uM after 48 hrs by flow cytometry (reference value: 0.19%)", "format": "functional"}, "[11]": {"test": "Cell cycle arrest in human Bel7402 cells assessed as cells accumulation at G1 phase at 50 uM after 48 hrs by flow cytometry (reference value: 62.60%)", "format": "functional, cell-based", "conditions": "Bel-7402"}}, "note": "Active and inactive are the calls of the source. No cut-off for these calls is given here."}
{"smiles": "COc1cc(/C=C/c2ccc(-n3[se]c4ccccc4c3=O)cc2)cc(OC)c1", "values": [{"measurement": "IC50", "setting": "MCF7", "value": 7.78, "unit": "µM"}, {"measurement": "IC50", "setting": "[1]", "value": 3.49, "unit": "µM"}, {"measurement": "IC50", "setting": "A549", "value": 3.73, "unit": "µM"}, {"measurement": "solubility", "setting": "[2]", "value": "> 100", "unit": "µM"}, {"measurement": "IC50", "setting": "[3]", "value": 8.27, "unit": "µM"}, {"measurement": "IC50", "setting": "HeLa", "value": 3.8, "unit": "µM"}]}
{"smiles": "COc1cc(/C=C/c2ccc(-n3[se]c4ccc(Cl)cc4c3=O)cc2)cc(OC)c1", "values": [{"measurement": "inhibition", "setting": "Rattus norvegicus", "value": 31.2, "unit": "%"}, {"measurement": "solubility", "setting": "[2]", "value": "< 50", "unit": "µM"}]}
{"smiles": "COc1cc(/C=C/c2ccc(-n3[se]c4cc(OC)c(OC)cc4c3=O)cc2)cc(OC)c1", "values": [{"measurement": "IC50", "setting": "MCF7", "value": 88.9, "unit": "µM"}, {"measurement": "IC50", "setting": "[1]", "value": 25.4, "unit": "µM"}, {"measurement": "IC50", "setting": "A549", "value": 52.6, "unit": "µM"}, {"measurement": "IC50", "setting": "[3]", "value": 7.53, "unit": "µM"}, {"measurement": "IC50", "setting": "HeLa", "value": 31.6, "unit": "µM"}]}
{"smiles": "O=c1c2ccccc2[se]n1-c1ccccc1", "note": "[EBSELEN]", "values": [{"measurement": "Activity", "setting": "Bel-7402 [4]", "value": 90.8, "unit": "%"}, {"measurement": "IC50", "setting": "MCF7", "value": "> 100", "unit": "µM"}, {"measurement": "Activity", "setting": "[5]", "value": 3.32, "unit": "%"}, {"measurement": "Activity", "setting": "Bel-7402 [6]", "value": 7.94, "unit": "%"}, {"measurement": "Activity", "setting": "[7]", "value": 11.2, "unit": "%"}, {"measurement": "IC50", "setting": "[1]", "value": 68.2, "unit": "µM"}, {"measurement": "IC50", "setting": "A549", "value": "> 100", "unit": "µM"}, {"measurement": "Activity", "setting": "Bel-7402 [8]", "value": 0.56, "unit": "%"}, {"measurement": "Activity", "setting": "[9]", "value": 21.2, "unit": "%"}, {"measurement": "IC50", "setting": "[3]", "value": 8.54, "unit": "µM"}, {"measurement": "IC50", "setting": "HeLa", "value": 78.5, "unit": "µM"}, {"measurement": "Activity", "setting": "Bel-7402 [10]", "value": 0.72, "unit": "%"}, {"measurement": "Activity", "setting": "[11]", "value": 58.7, "unit": "%"}]}
{"smiles": "COc1cc(/C=C/c2ccc(-n3[se]c4cc(Cl)ccc4c3=O)cc2)cc(OC)c1", "values": [{"measurement": "IC50", "setting": "MCF7", "value": 0.47, "unit": "µM"}, {"measurement": "IC50", "setting": "[1]", "value": 0.79, "unit": "µM"}, {"measurement": "IC50", "setting": "A549", "value": 0.52, "unit": "µM"}, {"measurement": "inhibition", "setting": "Rattus norvegicus", "value": 36.4, "unit": "%"}, {"measurement": "solubility", "setting": "[2]", "value": "< 10", "unit": "µM"}, {"measurement": "IC50", "setting": "HeLa", "value": 0.23, "unit": "µM"}]}
{"smiles": "COc1ccc(/C=C/c2ccc(N3Cc4ccccc4C3=O)cc2)cc1OC", "values": [{"measurement": "IC50", "setting": "MCF7", "value": "> 10", "unit": "µM"}, {"measurement": "IC50", "setting": "[1]", "value": "> 10", "unit": "µM"}, {"measurement": "IC50", "setting": "A549", "value": "> 10", "unit": "µM"}, {"measurement": "inhibition", "setting": "Rattus norvegicus", "value": "inactive"}, {"measurement": "solubility", "setting": "[2]", "value": "< 10", "unit": "µM"}, {"measurement": "IC50", "setting": "HeLa", "value": "> 10", "unit": "µM"}]}
{"smiles": "O=c1c2ccccc2[se]n1-c1ccc(/C=C/c2ccccc2)cc1", "values": [{"measurement": "IC50", "setting": "MCF7", "value": 24.8, "unit": "µM"}, {"measurement": "IC50", "setting": "[1]", "value": 12.4, "unit": "µM"}, {"measurement": "IC50", "setting": "A549", "value": 23.8, "unit": "µM"}, {"measurement": "inhibition", "setting": "Rattus norvegicus", "value": 22.4, "unit": "%"}, {"measurement": "IC50", "setting": "HeLa", "value": 35.7, "unit": "µM"}]}
